Experiment [1] has as its system thioglycollate induced neutrophil migration. The experiment can be described thus: Murine thioglycollate induced peritonitis. In kind it is in vivo. To be noted: s.c., mice. The method, then:
Thioglycollate is injected i.p. to mice and immediately thereafter the compound to be tested is given s.c. The mice are killed after 4 hours, the peritoneal cavity lavaged and the total number of neutrophils in the lavage fluid is determined.
In this assay, the compounds of the invention, e.g. mevinolins inhibit thioglycollate induced neutrophil migration when administered s.c. at a dose of from 0.001-50 mg/kg.

Experiment [2] deals with T1, LFA-1/ICAM-1 interactions (Homo sapiens, UniProt P20701).
T1 construct: host or cells: Jurkat or Hut 78 cells
The experiment in a line: Jurkat or Hut 78 cell adhesion to ICAM-1. In kind it is cell-based. Here is the method: Jurkat or Hut 78 cells obtained from ATCC and cultured in RPMI-1640 supplemented with 10% FCS, L-glutamine, non essential amino acids and 0.05 mM 2-mercaptoethanol, are centrifuged, washed once in PBS, and resuspended at 0.5×10^6 cells/ml in binding buffer (1.5% BSA, 5 mM glucose, 2 mM MgCl2, […] MnCl2 in TBS, pH 7) containing 5 μg/ml BCECF-AM (Molecular Probes). The cells are incubated at 37° C. for 30-45 min. in the dark. Then the cells are centrifuged and resuspended in binding buffer by pipetting and immediately used for experiment.
Flat well microtiter plates (NUNC Maxisorp) are coated with 1 μg/ml goat anti-mouse Cκ (Bioreba, South.Biot.) in carbonate buffer (15 mM Na2CO3, 35 mM NaHCO3, pH8.0) 2 hours at 37° C. The plates are emptied and blocked with 1.5% BSA and 0.5% Tween-20 in carbonate buffer for 90 min. at 37° C. The plates are emptied and washed once in TBS containing, 1.5% BSA. Baculovirus derived ICAM-1 mouse Cκ fusion protein (100 ng/ml in TBS/1.5% BSA) is added to the wells. The plates are incubated for 90 min. at 37° C. After three washes with TBS/1.5% BSA, the compound to be tested is diluted in binding buffer (as above but free from BSA and glucose) and added to the wells. Then 100 000 Jurkat or Hut 78 cells/well are added and allowed to adhere for 30 min. at 37° C. Adherent cells are separated from non-adherent cells by 2-4 washes using binding buffer. Adherent cells are quantified with a fluorescence ELISA reader CytofluorII with the filters set at 485 nm and 530 nm emission.

For experiment [3], the target named is T2, LFA-1 I-domain (Homo sapiens, UniProt P20701).
T2 construct: amino acid residues 128 to 309 of the α-chain of LFA-1 which corresponds to the I-domain
T2 sequence (P20701 153-334): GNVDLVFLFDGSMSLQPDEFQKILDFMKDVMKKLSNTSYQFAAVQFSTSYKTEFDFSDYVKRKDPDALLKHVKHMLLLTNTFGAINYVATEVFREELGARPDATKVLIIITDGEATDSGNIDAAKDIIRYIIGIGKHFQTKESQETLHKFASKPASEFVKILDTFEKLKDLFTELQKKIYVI
The experiment in a line: X-ray analysis of the complex of LFA-1 I-domain with mevinolin. In kind it is binding. Here is the method:
The complex, LFA-1 I-domain/mevinolin, is prepared by adding mevinolin (100 mM solution in DMSO) to the protein solution (12.7 mg/ml, 100 mM MgSO4), followed by crystallization. The structure is solved by molecular replacement (using the coordinates of apo LFA-1 I domain, A. Qu & D. Leahy, above) and has been refined to a R factor of 19.4% (Rfree=25.9%) using X-ray amplitudes in the resolution range 8 Å-2.6 Å. The final model contains 2×182 amino acids (amino acid residues 128 to 309 of the α-chain of LFA-1 which corresponds to the I-domain), 2 mevinolin molecules and a total of 86 water molecules.

The mark [4] stands for this setting: Jurkat cells, adhesion to ICAM-1, read-out: IC50 in the Jurkat Cell Assay.

The structures appear in SMILES notation. Where two headings read alike, the source gives them in different places.

T1 sequence (P20701 26-1170): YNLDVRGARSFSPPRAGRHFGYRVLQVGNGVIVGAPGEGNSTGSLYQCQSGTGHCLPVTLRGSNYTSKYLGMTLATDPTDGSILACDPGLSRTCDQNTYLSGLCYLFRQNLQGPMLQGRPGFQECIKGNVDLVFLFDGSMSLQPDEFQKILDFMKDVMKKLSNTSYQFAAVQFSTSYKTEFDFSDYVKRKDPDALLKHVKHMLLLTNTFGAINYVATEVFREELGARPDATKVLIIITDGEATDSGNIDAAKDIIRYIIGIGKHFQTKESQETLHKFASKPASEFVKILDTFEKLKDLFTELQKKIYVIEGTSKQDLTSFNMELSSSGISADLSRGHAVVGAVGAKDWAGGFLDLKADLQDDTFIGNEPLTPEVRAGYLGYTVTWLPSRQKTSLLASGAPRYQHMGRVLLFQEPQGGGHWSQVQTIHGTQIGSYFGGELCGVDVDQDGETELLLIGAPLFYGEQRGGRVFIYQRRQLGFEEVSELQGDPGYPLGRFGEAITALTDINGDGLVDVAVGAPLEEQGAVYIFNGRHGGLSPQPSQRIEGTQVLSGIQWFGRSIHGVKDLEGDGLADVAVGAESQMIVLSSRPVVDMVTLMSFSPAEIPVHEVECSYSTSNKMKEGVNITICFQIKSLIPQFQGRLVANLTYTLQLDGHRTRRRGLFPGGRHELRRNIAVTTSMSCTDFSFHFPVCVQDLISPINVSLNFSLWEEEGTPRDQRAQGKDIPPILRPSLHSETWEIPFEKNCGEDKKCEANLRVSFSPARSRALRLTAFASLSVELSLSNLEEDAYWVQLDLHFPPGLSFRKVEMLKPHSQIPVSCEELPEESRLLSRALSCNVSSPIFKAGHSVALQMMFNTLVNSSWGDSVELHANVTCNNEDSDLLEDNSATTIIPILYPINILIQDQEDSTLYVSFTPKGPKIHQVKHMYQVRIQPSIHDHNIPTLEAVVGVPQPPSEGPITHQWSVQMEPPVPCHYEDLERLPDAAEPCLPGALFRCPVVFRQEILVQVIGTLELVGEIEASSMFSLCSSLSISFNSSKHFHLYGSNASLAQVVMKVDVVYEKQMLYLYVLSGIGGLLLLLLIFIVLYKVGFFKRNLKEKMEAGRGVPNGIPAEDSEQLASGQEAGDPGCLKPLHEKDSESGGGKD
T1 sequence (P05107 23-769 partner): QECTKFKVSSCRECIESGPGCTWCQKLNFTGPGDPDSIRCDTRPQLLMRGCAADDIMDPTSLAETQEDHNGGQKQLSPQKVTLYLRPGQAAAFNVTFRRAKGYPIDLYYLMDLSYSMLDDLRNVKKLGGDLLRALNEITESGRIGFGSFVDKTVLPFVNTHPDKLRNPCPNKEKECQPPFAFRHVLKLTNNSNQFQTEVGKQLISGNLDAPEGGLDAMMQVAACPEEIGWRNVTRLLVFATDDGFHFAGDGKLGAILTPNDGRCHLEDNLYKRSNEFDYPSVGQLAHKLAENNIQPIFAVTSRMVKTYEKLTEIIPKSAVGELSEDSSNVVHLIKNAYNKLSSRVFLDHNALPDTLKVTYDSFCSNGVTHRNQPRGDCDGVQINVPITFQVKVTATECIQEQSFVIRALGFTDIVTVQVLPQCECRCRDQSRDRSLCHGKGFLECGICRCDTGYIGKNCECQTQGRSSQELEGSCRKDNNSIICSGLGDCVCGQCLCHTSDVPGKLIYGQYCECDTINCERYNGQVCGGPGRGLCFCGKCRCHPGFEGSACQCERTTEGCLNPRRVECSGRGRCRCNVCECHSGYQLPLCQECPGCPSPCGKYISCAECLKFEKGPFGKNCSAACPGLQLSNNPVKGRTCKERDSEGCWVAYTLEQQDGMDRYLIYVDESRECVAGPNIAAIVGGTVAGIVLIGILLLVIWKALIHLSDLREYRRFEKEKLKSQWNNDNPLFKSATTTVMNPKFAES

In the case of `CCC(C)C(=O)OC1CC(C)C=C2C=CC(C)C(CCC(O)CC(CC(=O)NCCO)NCCO)C21` (stereo not shown) [Example 6, 2-Methyl-butyric Acid 8-[3-Hydroxy-5-(2-hydroxy-ethylamino)-6-(2-hydroxy-ethylcarbamoyl)-hexyl]-3,7-dimethyl-1,2,3,7,8,8a-hexahydro-naphthalen-1-yl Ester], the “inhibition of neutrophil migration” value in experiment [1] (1 mg/kg) is listed as “fully inhibit”. The IC50 in experiment [2] (setting [4]) is 4000 nM.

In the case of `CC[C@H](C)C(=O)O[C@H]1C[C@@H](C)C=C2C=C[C@H](C)[C@H](CCC(O)CC(O)CC(=O)NCc3ccccc3OC)[C@H]21` (stereo partly shown) [Example 15], the 50% inhibitory concentration (IC50) in experiment [2] (setting [4]) came to 2200 nM.

Regarding `CC[C@H](C)C(=O)O[C@H]1C[C@@H](C)C=C2C=C[C@H](C)[C@H](CCC(O)CC(O)CC(=O)N3CCC4(CC3)OCCO4)[C@H]21` (stereo partly shown) [Example 33], the “inhibition of neutrophil migration” value in experiment [1] (0.1 mg/kg) is “fully inhibit”. Besides, in experiment [2], the IC50 came to 1200 nM.

Take `CC[C@H](C)C(=O)O[C@H]1C[C@@H](C)C=C2C=C[C@H](C)[C@H](CC[C@@H]3C[C@@H](O)CC(=O)O3)[C@H]21` [mevinolin, Mevinolin]: in experiment [3] (X-ray analysis of the complex), the “binding to the MIDAS-site” value is “does not bind to the MIDAS-site”. Besides, the “binding to the LFA-1 I-domain (south pole pocket)” value in experiment [3] (between the C-terminal helix α7 and one side of the β-sheet) is given as “binds to the LFA-1 I-domain”.

The values are drawn from patent US6630492B1, “Lymphocyte function antigen-1 antagonists” (Novartis AG, priority 1997, dated 2003).
